Results taken from patent US20110288314A1, “PHLOROGLUCINOL DERIVATIVES FROM ECKLONIA CAVA HAVING ANTI-HIV-1 INHIBITORY ACTIVITY” (priority 2008, published 2011).

Columns and labels:
[1] = test system: HIV-1IIIB; test: HIV-1 p24 antigen capture ELISA in H9 cells; type: cell-based; set-up: dose or concentration left out as unconfirmed; conditions: ELISA (FIG. 1D)
Method: H9 cells (3×10^6 cells/ml) were incubated in the presence or absence of HIV-1IIIB for 1 h at 37° C. Cells were washed to remove unbound viruses and resuspended at 3×10^5 cells/ml in culture medium. Aliquots of 1 ml were placed in a 24-well culture plate containing an equal volume of medium with/without 6,6′-bieckol.
AZT was treated as positive control. In order to determine the amount of virus released to the medium, HIV-1 p24 antigen capture ELISA was carried out with a commercial kit (Perkin-Elmer Life Sciences, Boston, Mass.) according to the manufacturer's instructions.

[2] = test system: HIV-1IIIB; test: Western blot analysis of p24 / gag proteins in HIV-1IIIB infected H9 cells; type: cell-based
Method: 1×10^6 cells/ml H9 cells were cultured in cell culture plates. Following sample treatment, plates were incubated for 2 h and infected with HIV-1IIIB at 200 CCID50. After 96 h of incubation at 37° C., cells were pelleted at 1000 rpm for 10 min and supernatant was harvested. The cells were washed 3 times with PBS and lysed with 500 μl of lysis buffer containing 50 mM Tris-HCl (pH 7.5), 0.4% Nonidet P-40, 120 mM NaCl, 1.5 mM MgCl2, 2 mM phenylmethylsulfonyl fluoride, 80 μg/ml leupeptin, 3 mM NaF, and 1 mM DTT. Hundred micrograms of total protein was used for immunoblot analysis.
Culture supernatant containing virus was filtered through 0.22 μm filter, mixed with 30% polyethylene glycol (PEG) (50% v/v) with 0.4 M NaCl, and virus particles were pelleted at 15000 rpm for 45 min. The viral pellets were lysed, resuspended in SDS sample buffer and equal volume of viral lysates (20 μl) was loaded onto SDS gel. The proteins were subjected to denaturating SDSAGE in 25 mM Tris, 192 mM glycine, 0.1% SDS with a 4% stacking, and 10% separating gel. Separated proteins were transferred onto a nitrocellulose membrane, blocked in Tris buffered saline containing 0.1% (v/v) Tween 20 (TBS-T) and 5% skim milk powder. The membrane was probed with mouse anti-p24 monoclonal antibody (1:500, SantaCruz) and horseradish peroxidase (HRP)-conjugated anti-mouse IgG secondary antibody (1:5000, SantaCruz). […]

[3] = molecular target: T1, HIV-1 reverse transcriptase (Human immunodeficiency virus type 1 group M subtype B, UniProt P04585); test: Reverse transcriptase activity assay (fluorescence RT kit, viral lysate); type: biochemical; set-up: HIV-1 RT enzyme activity inhibited: dose or concentration left out as unconfirmed; conditions: RT from cell culture supernatant
T1 construct: HIV-1 reverse transcriptase in the viral lysate; endogenous in cells; host or cells: lysate of virus particles produced by infected cell culture (viral lysate)
Method: The activity of HIV-1 reverse transcriptase in the viral lysate was evaluated using a fluorescence RT assay kit (InvitroGen) according to the manufacturer's protocol. Briefly, 20 μl of reaction mixture containing a template/primer hybrid, poly(A)/d(T)16, and dTTP as a triphosphate substrate was added to the wells of amicrotiter plate and mixed with 5 μl of viral lysate containing various concentrations of 6,6′-bieckol. After incubation at 37° C. for 1 h, the reaction was stopped by the addition of 2 μl of 200 mM EDTA to each reaction. Fluorescence intensity was measured at 480 nm (excitation) and 520 nm (emission) with a GENiosmicroplate reader (Tecan Austria GmbH, Austria) after the addition of 173 μl of fluorescent PicoGreenreagent, which selectively binds to dsDNA or DNA-RNA heteroduplexes over single-stranded nucleic acids or free nucleotides.

[4] = test system: HIV-1IIIB; test: Co-cultivation assay (C8166 cells with H9 cells chronically infected with HIV-1IIIB); type: cell-based; conditions: highest concentration treated; C8166 + H9/HIV-1IIIB, 72 h
Method: 3×10^4 C8166 cells were pre-treated with various concentrations of 6,6′-bieckol for 2 h and co-cultured with 3×10^3 H9 cells chronically infected with HIV-1IIIB at 37° C. in a humidified atmosphere of 5% CO2. After 72 h of incubation, the number of syncytia formed was counted using a microscope.

[5] = test system: CEM-SS or H9 cells; test: Cell viability (MTT) assay; type: cell-based, human; conditions: up to 500 μM, 72 h
Method: H9 and H9/HIV-1IIIB cell lines were obtained through American Type of Culture Collection (Manassas, Va., USA). CEM-SS cell line from Dr. P. Nara and C8166 cell line from Dr. G. Farrar were provided by the EU Programme EVA Centre for AIDS Reagents, NIBSC, UK. CEM-SS, C8166, H9 and H9/HIV-1IIIB cell lines were grown in RPMI 1640 medium supplemented with 10% FBS, 100 μg of streptomycin per ml and 100 U of penicillin per ml. HIV-1IIIB virus stock was obtained from the culture supernatant of chronically infected H9/HIV-1IIIB cells. Cell-free virus was harvested from the supernatants by centrifugation and filtration through 0.22 μM filter. The virus stocks were stored as small aliquots at […] until use.
The cytotoxic concentrations of 6,6′-bieckol were determined by MTT assay, a method based on the reduction of 3-(4,5-dimethylthiazol-2-yl)-2,5-diphenyltetrazolium bromide (MTT). Four hundreds of microliters of medium containing CEM-SS or H9 cells were cultured into a 48-well plate at a density of 10^5 cells/ml. The plate was incubated overnight and treated with 100 μl of RPMI 1640 medium with/without 6,6′-bieckol. After 72 h of incubation, 100 μl of 500 μg/ml MTT was added to each well and the plate was incubated for another 4 h at 37° C. […] Optical density was measured at 540 nm with a microplate reader. […]

Oc1cc(O)cc(Oc2c(O)cc(O)c3c2Oc2c(O)cc(O)c(-c4c(O)cc(O)c5c4Oc4c(O)cc(O)c(Oc6cc(O)cc(O)c6)c4O5)c2O3)c1 [6,6′-bieckol]
inhibition of production of p24 antigen [1]: more than 90% | protease inhibition judged from p55 gag related protein bands ([2]; Western blot): did not inhibit the protease | inhibition of p24 antigen production versus AZT ([2]; of 6,6′-bieckol vs AZT 5 μM (FIG. 2C)): comparable to that of AZT | inhibition at 1 µM ([3]; 1 μM, read-out: HIV-1 RT enzyme inhibition): 50.5% | HIV-1 RT enzyme activity inhibited [3]: 96.33% | inhibition of syncytia formation in co-cultivation assay [4]: around 80% | cytotoxicity [5]: no cytotoxicity
